Reference: ChEMBL document CHEMBL1134487, “Design, synthesis, and biological evaluation of analogues of the antitumor agent, 2-(4-[(7-chloro-2-quinoxalinyl)oxy]phenoxy)propionic acid (XK469)” (2001)

How the values were obtained:
[1] = tested on: Mus musculus; assay: Cytotoxicity against sc transplanted Mam-16/C/Taxol tumors of mouse origin, activity expressed as %log kill at the dose of 480 mg/kg, iv; format: functional, organism-based; design: dose 480 mg/kg
[2] = tested on: Mus musculus; assay: In vivo activity tested against C3H mice bearing panc-03 murine tumor measured as body weight loss at 328 mg/kg (po); format: functional
[3] = tested on: Mus musculus; assay: In vivo activity tested against C3H mice bearing panc-03 murine tumor measured as% treated/control calculated at 328 mg/kg (po); format: functional
[4] = tested on: Mus musculus; assay: Cytotoxicity against sc transplanted colon-38 tumors of mouse origin, activity expressed as %T/C value at the dose of 546 mg/kg, iv; format: functional
[5] = tested on: Mus musculus; assay: Cytotoxicity against sc transplanted colon-26 tumors of mouse origin, activity expressed as T/C(%) at the dose of 300 mg/kg, iv; format: functional
[6] = tested on: Mus musculus; assay: Cytotoxicity against sc transplanted Panc-02 tumors of mouse origin, activity expressed as log10 Kill at the dose of 600 mg/kg, iv; format: functional, organism-based; design: dose 600 mg/kg
[7] = tested on: Mus musculus; assay: Cytotoxicity against sc transplanted Mam-16/C tumors of mouse origin, activity expressed as cures at the dose of 525 mg/kg, iv; 1/5 cures; format: functional
[8] = tested on: Mus musculus; assay: Cytotoxicity against iv transplanted L1210 tumors of mouse origin, activity expressed as %body wt. loss at the dose of 300 mg/kg, iv; format: functional
[9] = tested on: Mus musculus; assay: Cytotoxicity against iv transplanted L1210 tumors of mouse origin, activity expressed as %ILS at the dose of 300 mg/kg, iv; format: functional
[10] = tested on: Mus musculus; assay: Cytotoxicity against sc transplanted Mam-16/C/Taxol tumors of mouse origin, activity expressed as %body wt. loss at the dose of 480 mg/kg, iv; format: functional
[11] = tested on: Mus musculus; assay: Cytotoxicity against sc transplanted colon-51 tumors of mouse origin, activity expressed as cures at the dose of 980 mg/kg, po; 1/5 cures; format: functional
[12] = tested on: Mus musculus; assay: Cytotoxicity against iv transplanted AML1498 tumors of mouse origin, activity expressed as cures at the dose of 165 mg/kg, iv; 0/5 cures; format: functional
[13] = tested on: Mus musculus; assay: Cytotoxicity against sc transplanted colon-38 tumors of mouse origin, activity expressed as cures at the dose of 546 mg/kg, iv; 3/5 cures; format: functional
[14] = tested on: Mus musculus; assay: Cytotoxicity against iv transplanted L1210 tumors of mouse origin, activity expressed as cures at the dose of 300 mg/kg, iv; 0/5 cures; format: functional
[15] = tested on: Mus musculus; assay: Cytotoxicity against sc transplanted Mam-17/0 tumors of mouse origin, activity expressed as log10 Kill at the dose of 620 mg/kg, iv; format: functional, organism-based; design: dose 620 mg/kg
[16] = tested on: Mus musculus; assay: In vivo activity tested against C3H mice bearing mammary adenocarcinoma -17/ADR tumor measured as log Kill value was based on tumors that grew at 620 mg/kg (po); format: functional, organism-based; design: dose 620 mg/kg
[17] = tested on: Mus musculus; assay: Cytotoxicity against sc transplanted L1210 tumors of mouse origin, activity expressed as log10 Kill at the dose of 332 mg/kg, iv; format: functional, organism-based; design: dose 332 mg/kg
[18] = tested on: Mus musculus; assay: Cytotoxicity against sc transplanted Mam-17/0 tumors of mouse origin, activity expressed as %body wt. loss at the dose of 620 mg/kg, iv; format: functional
[19] = tested on: Mus musculus; assay: Cytotoxicity against sc transplanted DMS273 sm cell tumors of mouse and human origin, activity expressed as cures at the dose of 175 mg/kg, iv; 0/6 cures; format: functional
[20] = tested on: Mus musculus; assay: Cytotoxicity against sc transplanted Mam-17/Adr tumors of mouse origin, activity expressed as T/C(%) at the dose of 620 mg/kg, iv; format: functional
[21] = tested on: Mus musculus; assay: Cytotoxicity against iv transplanted AML1498 tumors of mouse origin, activity expressed as %body wt. loss at the dose of 165 mg/kg, iv; format: functional
[22] = tested on: Mus musculus; assay: Cytotoxicity against sc transplanted B-16 melanoma tumors of mouse origin, activity expressed as T/C(%) at the dose of 300 mg/kg, iv; format: functional
[23] = tested on: Mus musculus; assay: Cytotoxicity against sc transplanted DMS273 sm cell tumors of mouse and human origin, activity expressed as T/C(%) at the dose of 175 mg/kg, iv; format: functional
[24] = tested on: Mus musculus; assay: Cytotoxicity against sc transplanted L1210 tumors of mouse origin, activity expressed as T/C(%) at the dose of 332 mg/kg, iv; format: functional
[25] = tested on: Mus musculus; assay: Cytotoxicity against sc transplanted B-16 melanoma tumors of mouse origin, activity expressed as cures at the dose of 300 mg/kg, iv; 0/5 cures; format: functional
[26] = tested on: Mus musculus; assay: Cytotoxicity against sc transplanted colon-26 tumors of mouse origin, activity expressed as cures at the dose of 300 mg/kg, iv; 0/5 cures; format: functional
[27] = tested on: Mus musculus; assay: Cytotoxicity against sc transplanted Panc-02 tumors of mouse origin, activity expressed as T/C(%) at the dose of 600 mg/kg, iv; format: functional
[28] = tested on: Mus musculus; assay: Cytotoxicity against sc transplanted B-16 melanoma tumors of mouse origin, activity expressed as %body wt. loss at the dose of 300 mg/kg, iv; format: functional
[29] = tested on: Mus musculus; assay: In vivo activity tested against C3H mice bearing mammary adenocarcinoma -17/ADR tumor measured as body weight loss at 620 mg/kg (po); format: functional

CC(Oc1ccc(Oc2cnc3ccc(Cl)cc3n2)cc1)C(=O)O (centres undefined) was tested, and the Log kill [1] was 2.7, the Body weight loss [2] was -4% and the T/C [3] was 0%. For the same compound, the T/C [4] was 0%, the T/C [5] was 14% and the Log kill [6] was 2.8. For the same compound, the Cures [7] was 1, the Body weight loss [8] was -2% and the ILS at 300 mg/kg [9] was 160%. The Body weight loss [10] was -11%, the Cures [11] was 1 and the Cures [12] was 0. It also gave a Cures [13] of 3, a Cures [14] of 0 and a Log kill [15] of 3.4. The Log kill [16] was 3.9, the Log kill [17] was 0.8 and the Body weight loss [18] was -12%. It also gave a Cures [19] of 0, a T/C [20] of 2% and a Body weight loss [21] of -7%. The T/C [22] was 4%, the T/C [23] was 14% and the T/C [24] was 30%. For the same compound, the Cures [25] was 0, the Cures [26] was 0 and the T/C [27] was 9%. It also gave a Body weight loss [28] of -11% and a Body weight loss [29] of -4%.
